Consider three compounds from article PMC4207539 (Journal of Medicinal Chemistry, 2014).

Where “and” joins values, the source holds several entries; their conditions need not be identical. Identical values can stand only once.

Usually inhibition stands for how much of the control response was suppressed. The EC50 is the concentration needed to bring the measured effect to its halfway point. The term solubility denotes the concentration that dissolves in the medium under given conditions.

In one data set the test system is VEEV TC-83 strain. The format is cell-based, Venezuelan equine encephalitis virus.
For data set [1] the following is noted: male, in vivo.
Another data set relates to Fa2N-4 cells. The following applies: human.
The target in the next data set is CYP2C9 (Homo sapiens, UniProt P11712). Nature of the data set: in vitro. The note with it: pH 7.4.
For data set [2], the system named is VEEV (TC-83). Nature of the data set: microbe, parasite or virus in culture. The note with it: Venezuelan equine encephalitis virus, read-out: EC50, several VEEV strains.
For the next data set, the target named is CYP3A4 (Homo sapiens, UniProt P08684). Nature of the data set: in vitro. The note with it: pH 7.4.
The subject of data set [3] is VEEV (TC-83). The following applies: mouse, in vivo.
Another data set has as its target CYP2D6 (Homo sapiens, UniProt P10635). Nature of the data set: in vitro. The note with it: pH 7.4.
Data set [4] concerns panel of 67 GPCRs, ion channels and transporters. The format is binding. The note with it: 10 µM.
In another data set the target is CYP2C19 (Homo sapiens, UniProt P33261). Nature of the data set: in vitro. The following applies: pH 7.4.
For data set [5] the following is noted: mouse, in vivo, ip.
For another data set, the system named is VEEV TrD strain. The format is cell-based, Venezuelan equine encephalitis virus.
For data set [6], the system named is VEEV (TC-83).

Chain of CYP3A4 (P08684 whole entry): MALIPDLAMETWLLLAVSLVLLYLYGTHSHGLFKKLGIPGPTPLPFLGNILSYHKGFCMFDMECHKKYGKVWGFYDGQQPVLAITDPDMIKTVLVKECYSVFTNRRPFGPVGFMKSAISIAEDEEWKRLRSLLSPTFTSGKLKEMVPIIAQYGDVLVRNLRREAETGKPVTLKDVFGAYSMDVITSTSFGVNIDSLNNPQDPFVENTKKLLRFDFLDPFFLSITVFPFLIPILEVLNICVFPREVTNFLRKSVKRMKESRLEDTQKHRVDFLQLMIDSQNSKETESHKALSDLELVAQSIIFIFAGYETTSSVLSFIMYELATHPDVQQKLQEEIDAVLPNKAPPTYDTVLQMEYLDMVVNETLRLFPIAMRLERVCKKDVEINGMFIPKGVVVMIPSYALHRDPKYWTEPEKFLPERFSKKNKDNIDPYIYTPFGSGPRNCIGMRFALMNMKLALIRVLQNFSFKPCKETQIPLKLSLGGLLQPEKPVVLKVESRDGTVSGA
Chain of CYP2D6 (P10635 whole entry): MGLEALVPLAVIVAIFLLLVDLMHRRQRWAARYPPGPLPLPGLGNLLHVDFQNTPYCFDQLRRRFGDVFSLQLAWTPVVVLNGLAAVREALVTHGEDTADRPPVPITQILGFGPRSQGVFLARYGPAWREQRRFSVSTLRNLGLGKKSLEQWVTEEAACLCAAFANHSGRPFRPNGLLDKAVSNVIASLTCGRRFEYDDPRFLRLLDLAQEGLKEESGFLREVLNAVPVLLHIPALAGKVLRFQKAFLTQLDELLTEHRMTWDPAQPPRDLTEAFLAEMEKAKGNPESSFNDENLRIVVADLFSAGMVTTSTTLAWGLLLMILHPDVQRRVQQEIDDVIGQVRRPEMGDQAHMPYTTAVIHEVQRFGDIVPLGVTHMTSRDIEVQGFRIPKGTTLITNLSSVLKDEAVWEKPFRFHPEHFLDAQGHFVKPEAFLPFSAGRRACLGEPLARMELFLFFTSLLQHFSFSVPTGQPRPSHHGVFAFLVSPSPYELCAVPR
Chain of CYP2C9 (P11712 whole entry): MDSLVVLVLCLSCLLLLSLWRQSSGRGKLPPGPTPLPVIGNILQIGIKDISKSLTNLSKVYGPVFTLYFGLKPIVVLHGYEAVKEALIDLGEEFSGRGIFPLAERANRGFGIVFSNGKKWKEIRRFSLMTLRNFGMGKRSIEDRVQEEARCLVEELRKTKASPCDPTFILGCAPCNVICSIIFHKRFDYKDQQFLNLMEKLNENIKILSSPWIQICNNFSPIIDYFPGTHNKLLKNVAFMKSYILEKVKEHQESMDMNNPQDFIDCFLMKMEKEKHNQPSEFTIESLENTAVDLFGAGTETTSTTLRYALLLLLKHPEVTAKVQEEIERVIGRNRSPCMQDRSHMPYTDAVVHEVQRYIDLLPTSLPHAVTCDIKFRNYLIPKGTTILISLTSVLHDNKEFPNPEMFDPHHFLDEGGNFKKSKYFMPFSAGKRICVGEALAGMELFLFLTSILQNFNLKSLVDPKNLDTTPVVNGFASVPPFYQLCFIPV
Chain of CYP2C19 (P33261 whole entry): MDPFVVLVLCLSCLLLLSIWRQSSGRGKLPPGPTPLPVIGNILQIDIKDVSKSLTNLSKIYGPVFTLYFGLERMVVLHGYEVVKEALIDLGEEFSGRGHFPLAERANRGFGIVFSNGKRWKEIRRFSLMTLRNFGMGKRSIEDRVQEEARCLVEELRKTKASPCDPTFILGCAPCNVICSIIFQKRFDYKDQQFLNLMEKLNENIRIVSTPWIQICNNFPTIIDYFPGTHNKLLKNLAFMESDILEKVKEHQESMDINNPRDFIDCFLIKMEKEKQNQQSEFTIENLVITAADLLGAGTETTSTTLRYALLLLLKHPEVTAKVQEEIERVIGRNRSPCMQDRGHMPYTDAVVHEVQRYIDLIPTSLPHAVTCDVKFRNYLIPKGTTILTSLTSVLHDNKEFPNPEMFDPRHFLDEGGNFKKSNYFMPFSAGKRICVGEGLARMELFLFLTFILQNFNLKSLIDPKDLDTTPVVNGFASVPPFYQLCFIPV

As for `CCN1CCN(Cc2nc3ccc([N+](=O)[O-])cc3c(=O)n2-c2ccccc2F)CC1` [compound 1, 2-((4-Ethylpiperazin-1-yl)methyl)-3-(2-fluorophenyl)-6-nitroquinazolin-4(3H)-one], the “titer reduction, TC-83 strain (log)” value in the data set on VEEV TC-83 strain is 0.5 log (3-fold).
For the compound `CN1CCN(C)/C(=N/c2ccc([N+](=O)[O-])cc2C(=O)Nc2ccccc2)C1` [compound 45, (E)-2-((1,4-Dimethylpiperazin-2-ylidene)amino)-5-nitro-N-phenylbenzamide], the “plasma and brain concentration over in vitro CPE assay EC50” value in data set [1] (C57Bl/6, mouse) is above 10 fold. In addition, in data set [1] (C57Bl/6J, mouse), the “brain average concentration ± standard deviation” value was 0.35 ± 0.06 µM. In addition, the “hepatocyte toxicity (Fa2N-4), LD50” value in the data set on Fa2N-4 cells is above 25 µM. Besides, the inhibition at 10 µM against CYP2C9, against CYP3A4, on CYP2D6 and against CYP2C19 was below 30% in each case. Further, in the data set with VEEV (TC-83) [2], the EC50 fell in the range of 20 to 40 nM. The solubility is 13.1 µg/mL in the data set “physchem” (aqueous solubility, VEEV CPE assay medium) and 110 µM in “physchem” (pH 7.4, aqueous solubility, 1× PBS, pH 7.4). Moreover, in the data set on VEEV (TC-83) [3], the percent survival was 71%. In addition, the “inhibition of all other targets in the collection” value in data set [4] is given as at most 36%. Moreover, the “titer reduction, TC-83 strain (fold)” value in the data set with VEEV TC-83 strain was 5.8 log (630 000 fold) and 7.2 log (16 million fold). Moreover, the “titer reduction, TC-83 strain, dose response, EC90” value in the data set on VEEV TC-83 strain was 170 nM. In addition, the “toxicity (body weight loss, lethargy, hunched posture, ruffled fur)” value in data set [5] is listed as “no apparent toxicity or adverse effects were observed”. For the same compound, the “titer reduction, TrD strain” value in the data set on VEEV TrD strain is “no measurable viral replication”.
On to `COc1ccc(NC(=O)c2cc([N+](=O)[O-])ccc2/N=C2\CN(C)CCN2C)cc1` [compound 51, (E)-2-((1,4-Dimethylpiperazin-2-ylidene)amino)-N-(4-methoxyphenyl)-5-nitrobenzamide], for which the “lipophilic ligand efficiency, LLE” value in the data set on VEEV (TC-83) [6] came to 4.1. Further, in the data set with VEEV TC-83 strain, the “titer reduction, TC-83 strain (fold)” value is 7.2 log (16 million fold); the “titer reduction, TC-83 strain (log)” value is listed as 7.2 log (16 million fold); the “titer reduction, TC-83 strain, dose response, EC90” value worked out at 170 nM. Further, the “titer reduction, TrD strain” value with VEEV TrD strain is recorded as “no measurable viral replication”.
